Source: patent US5554359A, “Pigmentation enhancer and method” (priority 1994, dated 1996)
*1 amine or outer side, *2 acyl side, *3 side chain or, on linkers, in order; H or OH if unused. Where a SMILES comes first, the peptide text is derived from it. Bridges are numbered along the chain shown (N, C = ends). Roman numbers before positions name the chains, in order. [ ]: non-standard residue; d: D form. Actinocin(9to1) = Cc1c2oc3c(C)ccc(C(=O)[*:1])c3nc-2c(C(=O)[*:2])c(N)c1=O; NMeV = CN[C@H](C(=O)O)C(C)C; Sar = CNCC(=O)O

Legend:
Type in all cases: cell-based
[1] = test system: tyrosinase activity in mouse melanoma cells; experiment: Tyrosinase activity in Cloudman S91/mouse melanoma cells, earlier studies; conditions: MSH-stimulated tyrosinase activity
Procedure: The MSH response in these cells can be mimicked by treatment of cells with either cAMP analogues such as dbcAMP (dibutyryl cyclic AMP) or 8-bromo cAMP, or with inhibitors of phosphodiesterase activity such as theophylline and IBMX. […] Although it is clear that cAMP is the second messenger for MSH action, tyrosinase activity is not altered by direct incubation with activated protein kinase A, nor is tyrosinase directly phosphorylated by this kinase. Even though cAMP levels rise within minutes of treatment of cells with MSH, no increases in tyrosinase activity are detectable until 6-9 hours after exposure of cells to hormone. […] In an effort to further delineate the cellular pathways involved in the MSH stimulation of tyrosinase activity, we examined the transcriptional and translational requirements for MSH action. […] However, other studies have shown that tyrosinase may be activated in melanoma cells treated with MSH. Discussed herein are studies carried out to examine the contributions of induction and activation to the overall MSH stimulation of tyrosinase activity in melanoma cells. Further, studies on the regulation of tyrosinase in normal human melanocytes are also described and compared to those from melanoma cells.
Even more elaborate models involving an activation of tyrosinase via internalized MSH receptors have been proposed. Evidence for tyrosinase inhibitors in mouse melanocytes and melanoma has been reported by many investigators, but no such molecules have yet been isolated.

[2] = test system: tyrosinase activity in AM-7 cells; experiment: Tyrosinase activity in amelanotic mouse melanoma clone AM-7
Procedure: (§1) The mouse melanoma cell lines used to study the effects of lysosomotropic agents herein were the Cloudman S91 cell line (ATCC no. CCL 53.1) and two subclones of this line developed in our laboratory, the amelanotic line, AM-7, and a melanotic line, MEL-11A. All melanoma cell lines were grown in Ham's F-10 nutrient medium supplemented with 10% horse serum, penicillin (100 units/ml), and streptomycin (100 μg/ml). The normal human melanocyte cell strains used in this study were derived from foreskins of either neonares or from boys 2-6 years old. Human melanocyte cultures were grown in Ham's F-10 nutrient medium supplemented with 10% horse serum, 5% fetal bovine serum (FBS), 32 nM TPA (12-O-tetradecanoylphorbol 13-acetate), 10^-4 M IBMX(3-isobutyl-1-methylxanthine), penicillin (100 units/ml), and streptomycin (100 μg/ml).
(§2) To determine tyrosinase activity in situ in either melanoma cells or in human melanocyte cultures, the tyrosine hydroxylase activity of the enzyme was determined. […] Tyrosinase activity in cell homogenates was determined by sonicating cell pellets in 0.1-M sodium phosphate buffer (pH 6.8) and then incubating 50-μl aliquots in 0.5 ml of a reaction mixture containing 0.1-mM tyrosine, 2 μCi/ml of [^3 H]tyrosine, 0.1-mM L-DOPA (dihydroxyphenylalanine), and 0.1 mM PMSF (phenylmethylsulfonyl fluoride) at 37° C. for 2 hours. […]

[3] = test system: tyrosinase activity in mouse melanoma cells; experiment: Tyrosinase responses in mouse melanoma cells (Table 6)
Procedure: as §1
To determine tyrosinase activity in situ in either melanoma cells or in human melanocyte cultures, the tyrosine hydroxylase activity of the enzyme was determined. Cells were seeded into 60-mm culture dishes at 2×10^5 cells/dish and allowed to attach overnight. The medium was then exchanged for the appropriate growth medium supplemented with 1 μCi/ml of [^3 H]tyrosine (L-ring-3,5-^3 H]-tyrosine, DuPont New England Nuclear), and with hormones, where indicated. Cells were grown in labeled medium for 24 hours, and at this time, the medium was removed and assayed for the presence of ^3 H2 O using the charcoal absorption method of Pomerantz. Tyrosinase activity in cell homogenates was determined by sonicating cell pellets in 0.1-M sodium phosphate buffer (pH 6.8) and then incubating 50-μl aliquots in 0.5 ml of a reaction mixture containing 0.1-mM tyrosine, 2 μCi/ml of [^3 H]tyrosine, 0.1-mM L-DOPA (dihydroxyphenylalanine), and 0.1 mM PMSF (phenylmethylsulfonyl fluoride) at 37° C. for 2 hours. Reactions were terminated by the addition of 1 ml of charcoal (10% w/v in 0.1-N HCl). Samples were centrifuged, and the supernatants removed for determination of the amount of ^3 H2 O produced. […]

[4] = test system: tyrosinase activity in human melanocytes from white-skinned individuals; experiment: Tyrosinase activity in human melanocytes from white skin
Procedure: as §1
(§3) To determine tyrosinase activity in situ in either melanoma cells or in human melanocyte cultures, the tyrosine hydroxylase activity of the enzyme was determined. Cells were seeded into 60-mm culture dishes at 2×10^5 cells/dish and allowed to attach overnight. The medium was then exchanged for the appropriate growth medium supplemented with 1 μCi/ml of [^3 H]tyrosine (L-ring-3,5-^3 H]-tyrosine, DuPont New England Nuclear), and with hormones, where indicated. Cells were grown in labeled medium for 24 hours, and at this time, the medium was removed and assayed for the presence of ^3 H2 O using the charcoal absorption method of Pomerantz. Tyrosinase activity in cell homogenates was determined by sonicating cell pellets in 0.1-M sodium phosphate buffer (pH 6.8) and then incubating 50-μl aliquots in 0.5 ml of a reaction mixture containing 0.1-mM tyrosine, 2 μCi/ml of [^3 H]tyrosine, 0.1-mM L-DOPA (dihydroxyphenylalanine), and 0.1 mM PMSF (phenylmethylsulfonyl fluoride) at 37° C. for 2 hours. Reactions were terminated by the addition of 1 ml of charcoal (10% w/v in 0.1-N HCl). Samples were centrifuged, and the supernatants removed for determination of the amount of ^3 H2 O produced.
(§4) Dose/response parameters for ammonium chloride action were determined. […] Since tyrosinase is the rate-limiting enzyme for melanin synthesis, the stimulation of this enzyme by ammonium chloride should lead to increased melanin content of stimulated cells. […] Ammonium chloride increased tyrosinase activity in melanocytes from white-skinned individuals twenty-fold within 24 hours and by this time melanin contents had increased two-fold. Two other lysosomotropic agents, monensin and nigericin, were tested for their effects on tyrosinase activity. […] Thus, lysosomotropic agents have the ability to stimulate tyrosinase activity and melanin production in human melanocytes derived from white-skinned individuals, and to reduce melanin production in melanocytes from black-skinned people.

[5] = test system: tyrosinase activity in MEL-11A cells; experiment: Tyrosinase activity in melanotic mouse melanoma clone MEL-11A; conditions: MSH 10^-7 M or ammonium chloride 10 mM; 24 h; FIG. 4 bottom
Procedure: as §1, §2

[6] = test system: tyrosinase activity in human melanocytes; experiment: Tyrosinase responses in human melanocytes (Table 6); conditions: Table 6 text
Procedure: as §1, §3
Hormone responsiveness in human melanocyte cell cultures were examined (for these studies, melanocytes derived from skin type III were used). […] Tyrosinase activity and melanin content typically double with a 48-hour exposure to IBMX. […] The steroid hormones, for the most part, caused little, if any, change in tyrosinase activity at the concentrations used.

[7] = test system: melanin in human melanocytes; experiment: Melanin content in human melanocytes
Procedure: as §1
The amount of melanin in melanoma cells or in melanocytes was determined by incubating cell pellets in 2 ml of 1-N NaOH for 48 hours at 37° C. and then measuring the solubilized melanin at 400 nm.
as §4

[8] = test system: tyrosinase activity in human melanocytes from black individuals; experiment: Tyrosinase activity in human melanocytes from black skin; conditions: 10 mM
Procedure: as §1, with “Human melanocyte cultures were grown in Ham's F-10 nutrient medium supplemented with 10% horse serum, 5% fetal bovine serum (FBS), 32 nM TPA (12-O-tetradecanoylphorbol 13-acetate), 10^-4 M IBMX(3-isobutyl-1-methylxanthine), penicillin (100 units/ml), and streptomycin (100 μg/ml).” left out
as §2
Dose/response parameters for ammonium chloride action were determined. […]

[9] = within 24 hours, white-skinned individuals

Compound: Cc1c2oc3c(C)ccc(C(=O)N[C@@H]4C(=O)N[C@H](C(C)C)C(=O)N5CCC[C@H]5C(=O)N(C)CC(=O)N(C)[C@@H](C(C)C)C(=O)O[C@@H]4C)c3nc-2c(C(=O)N[C@@H]2C(=O)N[C@H](C(C)C)C(=O)N3CCC[C@H]3C(=O)N(C)CC(=O)N(C)[C@@H](C(C)C)C(=O)O[C@@H]2C)c(N)c1=O [actinomycin D] (I: T[dV]P[Sar][NMeV] / II: T[dV]P[Sar][NMeV]; ester I:1-I:C, II:1-II:C; linker I:N-II:N via Actinocin(9to1))
- hormonal induction of enzyme activity [1]: completely blocked

Compound: C[C@@H]1C[C@@H]([C@H](O)CC2CC(=O)NC(=O)C2)C(=O)[C@@H](C)C1 [cycloheximide]
- hormonal induction of enzyme activity [1]: completely blocked

Compound: α-amanitin
- hormonal induction of enzyme activity [1]: completely blocked

Compound: Cl.N [Ammonium chloride, ammonium chloride]
- stimulation of tyrosinase activity in presence of cycloheximide ([2]; 10 mM ammonium chloride with or without cycloheximide, data not shown): stimulation occurred in cells treated with or without cycloheximide
- increase in tyrosinase activity ([2]; 10 mM ammonium chloride, 24 h, FIG. 4 top): two-fold increase
- Effect on Tyrosinase Activity, Mouse Melanoma ([3]; Table 6, 10^-7 M except IBMX 10^-4 M, theophylline 1 mM, ammonium chloride 10 mM, A23187 not given): ++ (>300%)
- tyrosinase activity in mouse melanoma cells ([3]; Table 6 text): stimulates tyrosinase activity
- Tyrosinase Activity ([4]; 10 mM, 48 hours, cell strain #84W, FIG. 5): markedly elevated
- tyrosinase activity in melanocytes derived from white skin ([4]; 10 mM, footnote c of Table 6): stimulates tyrosinase activity
- concentration of maximal stimulation of tyrosinase activity ([4]; cell strain 69W, 48 hours, FIG. 6): 7.5 mM
- stimulation of tyrosinase activity ([4]; cell strain 69W, up to four hours, FIG. 8): effective in stimulating tyrosinase activity
- increase in tyrosinase activity [4, 9]: twenty-fold
- increase in tyrosinase activity [5]: four-fold increase
- tyrosinase activity in human melanocytes [6]: stimulates tyrosinase activity
- melanin versus untreated cells ([7]; 10 mM, 3 days, cell strain 69W, FIG. 7): twice as much melanin than untreated cells
- increase in melanin contents [7, 9]: two-fold
- Tyrosinase Activity ([8]; 48 hours, cell strain #90A6, FIG. 5): depressed
- tyrosinase activity in highly melanized melanocytes ([8]; black skin types, footnote c of Table 6): markedly inhibite
